The results in this text go back to ChEMBL document CHEMBL3576852, “Switch in Site of Inhibition: A Strategy for Structure-Based Discovery of Human Topoisomerase IIα Catalytic Inhibitors” (ACS Med Chem Lett, 2015).

The target of data set [1] is T1, DNA topoisomerase 2-alpha (Homo sapiens, UniProt P11388). The data set is described as follows: Inhibition of human topoisomerase 2alpha assessed as reduction in enzyme-mediated relaxation of negatively supercoiled pRYG DNA at 100 uM incubated for 30 mins by ethidium bromide staining based gel electrophoresis method.
T1 sequence (P11388 whole entry): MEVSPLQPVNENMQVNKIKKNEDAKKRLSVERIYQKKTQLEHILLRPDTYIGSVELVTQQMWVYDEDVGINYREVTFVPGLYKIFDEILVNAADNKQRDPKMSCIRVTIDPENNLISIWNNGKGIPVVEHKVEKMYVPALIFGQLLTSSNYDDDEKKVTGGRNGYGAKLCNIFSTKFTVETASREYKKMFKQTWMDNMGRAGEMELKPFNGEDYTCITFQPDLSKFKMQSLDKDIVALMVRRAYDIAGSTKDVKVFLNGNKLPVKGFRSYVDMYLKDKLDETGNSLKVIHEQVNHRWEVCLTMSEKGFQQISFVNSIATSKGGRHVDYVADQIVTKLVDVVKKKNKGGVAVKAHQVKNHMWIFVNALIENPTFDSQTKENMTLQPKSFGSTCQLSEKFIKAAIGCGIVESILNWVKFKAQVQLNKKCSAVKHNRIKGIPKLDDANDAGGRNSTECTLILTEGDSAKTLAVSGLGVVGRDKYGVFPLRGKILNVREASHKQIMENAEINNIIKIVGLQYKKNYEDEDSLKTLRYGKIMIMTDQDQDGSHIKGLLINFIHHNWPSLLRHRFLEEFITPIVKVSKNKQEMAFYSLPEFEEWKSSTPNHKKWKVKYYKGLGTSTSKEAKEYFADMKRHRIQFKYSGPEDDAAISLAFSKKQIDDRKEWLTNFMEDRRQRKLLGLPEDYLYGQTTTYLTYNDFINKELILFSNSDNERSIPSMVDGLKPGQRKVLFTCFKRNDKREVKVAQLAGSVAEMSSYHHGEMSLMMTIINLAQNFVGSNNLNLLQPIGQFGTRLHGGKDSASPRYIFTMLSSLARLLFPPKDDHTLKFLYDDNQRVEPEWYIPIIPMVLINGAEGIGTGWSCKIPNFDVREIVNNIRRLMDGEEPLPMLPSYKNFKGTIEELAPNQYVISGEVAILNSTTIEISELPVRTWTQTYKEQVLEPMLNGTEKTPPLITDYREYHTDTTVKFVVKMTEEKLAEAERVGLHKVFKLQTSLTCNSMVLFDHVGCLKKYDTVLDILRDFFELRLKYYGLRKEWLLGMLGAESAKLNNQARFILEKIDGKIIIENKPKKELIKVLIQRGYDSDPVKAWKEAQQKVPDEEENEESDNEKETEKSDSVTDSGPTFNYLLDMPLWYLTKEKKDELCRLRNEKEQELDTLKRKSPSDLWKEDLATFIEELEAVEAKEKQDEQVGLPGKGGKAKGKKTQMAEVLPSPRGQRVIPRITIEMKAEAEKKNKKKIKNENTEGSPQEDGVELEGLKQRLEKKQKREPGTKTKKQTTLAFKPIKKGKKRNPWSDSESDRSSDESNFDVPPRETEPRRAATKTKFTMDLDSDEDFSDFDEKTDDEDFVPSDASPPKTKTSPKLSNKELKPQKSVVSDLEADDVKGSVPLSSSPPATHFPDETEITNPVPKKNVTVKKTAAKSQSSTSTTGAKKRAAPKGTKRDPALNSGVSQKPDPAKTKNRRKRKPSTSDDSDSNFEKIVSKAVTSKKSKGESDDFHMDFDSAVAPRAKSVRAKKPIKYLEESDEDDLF
Data set [2] concerns the target T1, DNA topoisomerase 2-alpha. The experiment in a line: Inhibition of human topoisomerase 2alpha assessed as reduction in enzyme-mediated kinetoplast DNA decatenation at 100 uM incubated for 30 mins by agarose gel electrophoresis method.
The target of data set [3] is T2, DNA topoisomerase 1 (Homo sapiens) (UniProt P11387).
T2 sequence (whole entry): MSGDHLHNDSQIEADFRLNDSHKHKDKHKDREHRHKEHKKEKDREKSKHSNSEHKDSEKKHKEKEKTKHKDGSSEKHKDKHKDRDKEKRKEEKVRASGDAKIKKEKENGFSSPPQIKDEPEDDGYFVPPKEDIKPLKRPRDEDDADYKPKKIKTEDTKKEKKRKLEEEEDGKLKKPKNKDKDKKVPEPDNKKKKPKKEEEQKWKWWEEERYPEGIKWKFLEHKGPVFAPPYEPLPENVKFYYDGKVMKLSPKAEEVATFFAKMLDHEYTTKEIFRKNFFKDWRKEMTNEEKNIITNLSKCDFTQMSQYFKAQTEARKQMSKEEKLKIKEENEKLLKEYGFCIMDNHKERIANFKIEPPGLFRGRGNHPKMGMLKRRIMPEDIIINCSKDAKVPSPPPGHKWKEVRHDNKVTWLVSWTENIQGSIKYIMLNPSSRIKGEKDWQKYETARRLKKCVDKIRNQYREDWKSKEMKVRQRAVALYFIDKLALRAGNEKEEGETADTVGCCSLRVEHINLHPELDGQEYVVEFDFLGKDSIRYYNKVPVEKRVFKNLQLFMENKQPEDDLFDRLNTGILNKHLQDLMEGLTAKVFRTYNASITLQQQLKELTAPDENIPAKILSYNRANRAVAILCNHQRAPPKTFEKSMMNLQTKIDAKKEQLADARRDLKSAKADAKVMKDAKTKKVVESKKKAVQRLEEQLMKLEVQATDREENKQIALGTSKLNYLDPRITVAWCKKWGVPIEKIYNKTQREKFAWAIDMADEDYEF
The experiment in a line: Inhibition of human topoisomerase-1 assessed as reduction in enzyme-mediated relaxation of negatively supercoiled pRYG DNA at 100 uM incubated for 30 mins by ethidium bromide staining based gel electrophoresis method.

The target in data set [4] is T1, DNA topoisomerase 2-alpha. The data set is described as follows: Poisoning activity against human topoisomerase 2alpha assessed as induction of linear DNA formation at 100 uM incubated for 20 mins using small circular supercoiled pHOT DNA substrate by ethidium bromide staining based gel electrophoresis method.
The test system of a further data set is HEK293. The experiment in a line: Cytotoxicity against HEK293 cells assessed as reduction in cell viability after 48 hrs by MTT assay. Conditions: Homo sapiens; for CC50: HEK293, 48 h, read-out: LC50 (the source's name). Format: functional. (In general: Formazan colour is commonly taken as a measure of viable cells.)
Data set [5] can be described thus: Cytotoxicity against African green monkey Vero cells assessed as cell viability at 75 uM after 48 hrs by MTT assay. Format: cell-based. The settings on record: chlorocebus sabaeus, read-out: Activity.
Data set [6] can be described thus: Cytotoxicity against African green monkey Vero cells assessed as reduction in cell viability after 48 hrs by MTT assay. Conditions: chlorocebus sabaeus, read-out: LC50. Format: cell-based.
The target in data set [7] is T1, DNA topoisomerase 2-alpha. Conditions: HEK293, 45 uM.
Description: Inhibition of topoisomerase 2alpha in HEK293 cells at 45 uM incubated for 48 hrs using TOP-FLASH plasmid substrate by ethidium bromide staining based agarose gel electrophoresis method
In data set [8] the target is T1, DNA topoisomerase 2-alpha. The data set is described as follows: Inhibition of etoposide-enhanced human topoisomerase 2alpha-mediated DNA cleavage at 100 to 400 uM incubated for 2 mins in presence of 100 uM etoposide by ethidium bromide staining based gel electrophoresis method.
For data set [9], the target named is T1, DNA topoisomerase 2-alpha. The data set is described as follows: Inhibition of human topoisomerase 2alpha assessed as reduction in enzyme-mediated kinetoplast DNA decatenation incubated for 30 mins by agarose gel electrophoresis method.
For data set [10], the target named is T1, DNA topoisomerase 2-alpha. The data set is described as follows: Inhibition of topoisomerase 2alpha in HEK293 cells at 5 to 15 uM incubated for 48 hrs using TOP-FLASH plasmid substrate by ethidium bromide staining based agarose gel electrophoresis method. It is filed as cell-based.
The nature of data set [11]: Binding affinity to TOP-FLASH TCF/LEF transcription factor DNA (unknown origin) at 5 to 25 uM incubated for 2 hrs by UV-visible spectrophotometry.
A further data set deals with Nucleic Acid. The experiment in a line: Induction of DNA intercalation of Escherichia coli pUC19 DNA at 100 uM by ethidium bromide staining based agarose gel electrophoresis method. It is filed as nucleic-acid assay.
Data set [12] has as its target T1, DNA topoisomerase 2-alpha. The data set is described as follows: Inhibition of etoposide-enhanced human topoisomerase 2alpha-mediated DNA cleavage at 100 to 400 uM pre-incubated for 2 mins before 100 uM etoposide addition by ethidium bromide staining based gel electrophoresis method.
In data set [13] the target is T1, DNA topoisomerase 2-alpha. The experiment in a line: Inhibition of etoposide-enhanced human topoisomerase 2alpha-mediated DNA cleavage at 100 to 400 uM pre-incubated for 2 mins with 100 uM etoposide followed by compound addition by ethidium bromide staining based gel electrophoresis method.
In data set [14] the target is T1, DNA topoisomerase 2-alpha. The data set is described as follows: Inhibition of etoposide-enhanced human topoisomerase 2alpha-mediated DNA cleavage at 100 to 400 uM incubated for 2 mins with simultaneous addition of 100 uM etoposide by ethidium bromide staining based gel electrophoresis method.
Data set [15] has as its target T1, DNA topoisomerase 2-alpha. The experiment in a line: Inhibition of human topoisomerase 2alpha ATPase activity assessed as inorganic phosphate release at 100 uM using pUC19 DNA substrate by malachite green reagent based ATPase inhibition assay.

Active and inactive are the calls of the source. The calls are words filed in the database; no cut-off is given here.

Turning to `COc1ccc(-c2ccc(-c3nc4ccccn4c3NC(C)(C)C)cc2)cc1`, the inhibition result in data set [1] and in [2] was “inactive” in each case.
For the compound `Cc1ccc(-c2ccc3nc(-c4ccc(Cl)cc4)c(NC(C)(C)C)n3c2)cc1`, the inhibition entry in [1] and in data set [2] was “Active” in each case. For the same compound, the inhibition result in data set [3] is “inactive”. For the same compound, the result in data set [4] was inactive. Besides, the Activity entry in the data set on HEK293 was “Dose-dependent effect”. Also, the CC50 in the data set on HEK293 turned out to be 15 µM. The viability at 48 h, 75 µM in data set [5] is more than 30%.
Consider `CC(C)(C)Nc1c(-c2ccc(-c3ccc(F)cc3)cc2)nc2cnccn12`, for which the inhibition result in data set [1] and in data set [2] was “inactive” throughout.
Consider `COc1cc([C@@H]2c3cc4c(cc3[C@@H](O[C@@H]3O[C@@H]5CO[C@@H](C)O[C@H]5[C@H](O)[C@H]3O)[C@H]3COC(=O)[C@H]23)OCO4)cc(OC)c1O` [ETOPOSIDE], for which the result in data set [4] was Active. Further, the CC50 with HEK293 was 55 µM. In addition, the CC50 at 48 h in [6] was found to be 75 µM. Further, the inhibition result in [7] was “Active”.
For the compound `CC(C)(C)Nc1c(-c2ccc(C(=O)O)cc2)nc2ccccn12`, in data set [8], the inhibition entry is “inactive”.
Take `COc1ccc(-c2nc3ccc(-c4ccccc4)cn3c2NC(C)(C)C)cc1`: the inhibition entry in data set [1] is “Active”. Moreover, in [2], the inhibition result is “Active”. In addition, the inhibition entry in [3] is “inactive”. Moreover, the outcome in data set [4] was inactive. For the same compound, in the data set on HEK293, the Activity result was “Dose-dependent effect” and the CC50 came to 13 µM. For the same compound, in data set [5], the viability at 48 h, 75 µM is more than 30%.
For `CC(C)(C)Nc1c(-c2ccc(-c3ccc(Cl)cc3)cc2)nc2ccccn12`, the inhibition result in data set [1] and in data set [2] was “inactive” throughout.
Regarding `CC(C)(C)Nc1c(-c2ccc(-c3ccccc3)cc2)nc2cnccn12`, the inhibition result in [1] and in data set [2] was “Active” each time.
Regarding `CC(C)(C)Nc1c(-c2ccc(Cl)cc2)nc2ccc(-c3ccc(F)cc3)cn12`, the inhibition entry in data set [1] was “Active”. In addition, the inhibition result in [2] is “Active”. Also, in data set [3], the inhibition entry was “inactive”. For the same compound, the result in [4] was inactive. Besides, in the data set with HEK293, the Activity entry is “Dose-dependent effect” and the CC50 stood at 8 µM. In [5], the viability at 48 h, 75 µM is more than 30%.
The IC50 is the concentration that gives 50% inhibition. `CC(C)(C)Nc1c(-c2ccc(Cl)cc2)nc2ccc(-c3ccccc3)cn12`: the inhibition entry in data set [1], in data set [2], in [10], in data set [13], in [14] and in data set [15] was “Active” throughout. Moreover, in data set [9], the IC50 came to 55.4 µM. The inhibition result in data set [3] was “inactive”. Further, the result (in data set [4]; in [11]; in the data set on Nucleic Acid) was inactive. Moreover, the Activity result in the data set with HEK293 was “Dose-dependent effect”. The CC50 with HEK293 was 10 µM. In addition, the viability at 48 h, 75 µM in [5] is more than 30%. The inhibition entry in data set [12] is “Dose-dependent effect”.
On to `COc1ccc(-c2ccc3nc(-c4ccc(Cl)cc4)c(NC(C)(C)C)n3c2)cc1`, for which the inhibition result in data set [1] was “Active”. Also, the inhibition result in [2] is “Active”. For the same compound, the inhibition result in data set [3] is “inactive”. In addition, the result in data set [4] was inactive. For the same compound, in the data set on HEK293, the Activity entry was “Dose-dependent effect” and the CC50 was determined as 10 µM. The viability at 48 h, 75 µM in [5] is more than 30%.
In the case of `CC(=O)c1ccc(-c2ccc(-c3nc4cnccn4c3NC(C)(C)C)cc2)cc1`, the inhibition entry in data set [1] and in [2] was “Active” in each case.
